In data set [1] the test system is Adriamycin (ADR)-induced proteinuria. The data set is described as follows: Adriamycin (ADR)-induced nephropathy model. In kind it is in vivo. The note with it: rat. An excerpt:
Adriamycine (doxorubicin) is a drug used in chemotherapy. It is known to cause undesirable renal toxicitiy in rat, mainly glomerular damage (via podocyte injury/loss), resulting in proteinuric neophrapthy (Hakroush et al., 2014, J. Am. Soc. Nephrology, 25:927-38), and it is the prototypical model of human primary focal and segmental glomerulosclerosis. ADR-induced mephropathy, in mouse or rat, is a robust in vivo model of proteinuria that can easily and directly be measured in urine, thus allowing for monitoring of disease progression in living animals. It is induced by a single intravenous injection of ADR.
Male CD rats (aged 8 weeks) were acclimatized in the facility for at least 5 days. On Day 0, rats received Adriamycin at a dose level of 7.5 mg/kg by tail vein administration at a dose volume of 5 mL/kg. If needed, an abbocath was used for administration. The abbocath will be flushed with 0.5 mL of 0.9% saline after Adriamycin injection. […]
Once pretreatment and on pre-determined days (e.g. days 5, 10, 15, 20) blood samples (0.7 mL) was collected from the jugular vein in SST tubes and analyzed for serum creatinine and BUN. Once pretreatment and on pre-determined days (e.g. days 5, 10, 15, 20) urine samples were collected overnight from individually housed animals. After collection, serum and urine samples were processed and analyzed for creatinine (serum & urine), BUN (serum) and total protein (urine). […] The time the animals are placed in urine collection cages and time of sample collection was recorded. […]
Once pretreatment and on Day 21, blood samples (0.7 mL) were collected from the jugular vein in SST tubes and analyzed for serum creatinine and BUN. Once pretreatment and on pre-determined days (Days 5, 10, 15, 21) urine samples were collected overnight from individually housed animals. After collection, serum and urine samples were processed and analyzed for creatinine (serum & urine), BUN (serum) and total protein (urine). […] The time the animals are placed in urine collection cages and time of sample collection was recorded. […]

The nature of data set [2]: plasma after s.c. administration of 1 mg/kg Compound III; after IV administration.
A short description of data set [3]: fresh mouse or rat plasma. The settings on record: 37° C., up to 120 min (Table 6; protocol lists up to 1440).
A short description of data set [4]: rat kidney tissue 10 minutes post IV administration. The settings on record: up to 10 minutes.
The nature of the next data set: FIGURE 31 (2/2). On the procedure:
Table printed on a drawing sheet, FIGURE 31 (2/2)
Peptide to internal standard peak area ratios were used calculate percentage remaining peptide at 60 minutes and 120 minutes. Peptides are identified by GPR number (GPR#) and SEQ ID NO.
First reader's note: Second part (2/2) of Figure 31, continued from the previous sheet; in the last row (GPR 478) the empty N-Terminal cell is merged with position 1.

Data set [5] is described as follows: Pharmacokinetic studies of THR-123 and GPR-294 i.v. and s.c. (FIG. 13, FIGS. 5-8). In kind it is in vivo. On the procedure: A stock solution of THR-123 was prepared at 250 μg/mL in DMSO. This solution was quantitatively added to blank mouse plasma to generate a calibration curve. The linear range was from 0.25 to 250 ng/mL. A 175 μL aliquot of plasma from removed from each calibrant tube and processed using solid phase extraction (SPE). Study samples were first diluted with blank control mouse plasma, and 175 μL was aliquoted for processing using SPE. An internal standard working solution (ISWS) was added to each calibrant and study sample (GPR-227 at 100 ng/mL in water). Plasma proteins were precipitated with 175 μL of methanol with 0.5% acetic acid (v/v). After centrifugation at 14,800 RPM for 10 minutes, a 300 μL aliquot of supernatant was diluted in water with 4% phosphoric acid (v/v). The entire diluted sample was extracted by SPE using a Waters Oasis HLB 96-well μElution plate. Samples were washed twice using a solution of acidified water (0.1% TFA, v/v) and 15% MeOH in water (v/v). Purified extracts were eluted into a 96-well collection plate using 40 μL of elution solvent. Standards and study samples were injected onto a Thermo Q-exactive LC-MS/MS system. Chromatographic separation was performed using a reversed-phase C18 HPLC column (Waters CSH C18, 50×2.1 mm, 2.5 μm). Analyte and internal standard were detected using the targeted selected ion monitoring (tSIM) scan mode. Calibration curves were generated by using a weighted (1/concentration^2) linear regression of the peak area ratios (analyte/internal standard) versus the nominal concentration of the calibration standards. The concentration of the analyte in the study samples was determined by back-calculating the peak area ratios obtained using the linear regression and applying the appropriate dilution factors.
The study described herein involved single (mouse) or multiple (rat) blood collections after test article administration. Test articles are given by oral (PO), intravenous (IV), subcutaneous (SC) or intraperitoneal (IP) routes. All animals have a five day acclimatization period before dosing. Body weights are recorded prior to dosing. […]

The next data set can be described thus: Ex-vivo plasma stability. The class given is in vitro ADME, mouse or rat. On the procedure:
Test article is added to fresh mouse or rat plasma at a final in-vial concentration of 1 μM. The peptide is incubated in a water bath at 37° C. over a time course that included the following points (in minutes): 0, 15, 30, 60, 120, 240, and 1440. After the incubation time is completed, a 50 μL aliquot of plasma is removed and proteins are precipitated using a solution containing internal standard (THR-123 at 150 ng/mL) in methanol with 0.5% acetic acid (v/v). The samples are centrifuged at 13,000 RPM for 5 minutes, and a 100 μL aliquot of supernatant is removed and transferred to a 96-well plate containing 200 μL of reconstitution solution (Water/MeOH/Acetic Acid/TFA, 60/40/0.2/0.05, v/v/v/v). A calibration curve and quality control (QC) samples are prepared in parallel in the same manner as the incubation samples. The calibration range for this assay is from 0.02 to 2.0 μM in rat or mouse plasma. The extracted calibrants, QC, and incubation samples are injected onto an AB SCIEX API 2000 LC-MS/MS system. Chromatographic separation is performed using a reversed-phase C18 HPLC column (Ace-3 C18, 30×2.1 mm, 3 μm). The solvent system consists of Milli-Q water, acetonitrile and formic acid. Analyte and internal standard are detected using the multiple reaction monitoring (MRM) scan mode. Calibration curves are generated by using a weighted (1/concentration) quadratic regression analysis of the peak area ratios (analyte/internal standard) versus the nominal concentration of the calibration standards. The concentration of the analyte in the incubation samples is determined by back-calculating the peak area ratios obtained using the quadratic regression.

“Also recorded” adds a separate entry of the source. Positions of bridges follow the written chain, without caps; N, C: chain ends. Non-standard residues stand in square brackets, D forms with d. Residues, ends and D or L forms follow the SMILES beside them. No end group written: not given here.

By fraction remaining is commonly meant the share of the starting amount still present when the sample was taken.

In the case of `CCOC(=O)[C@H](CCc1ccccc1)N[C@@H](C)C(=O)N1CCC[C@H]1C(=O)O` [Enalapril], the “ADR-induced renal lesions in H&E-stained kidney sections” value in data set [1] (21 days post ADR, treated daily, glomerular hypertrophy, protein casts, tubular dilation, neutrophils) was “absent or reduced in number”. Moreover, the “effect on ADR-induced proteinuria (urine protein to urine creatinine)” value in data set [1] (ADR 7.5 mg/kg, daily for 21 days, GPR-405 300 nmol/kg sc, enalapril 50 mg/kg po) is on record as “efficacious”. For the same molecule, the “effect on serum creatinine (sCr) and blood urea nitrogen (BUN)” value in data set [1] (following Adriamycin treatment, GPR-405 300 nmol/kg sc, enalapril 50 mg/kg po, FIG. 24) is on record as “Neither enalapril nor GPR-405 had any marked effect”.

“Cys-Tyr-Phe-Asp-Asp-Ser-Ser-Asn-Val-Leu-Cys-Lys-Lys-D-tyr-Arg-Ser”: the not cleaved result in data set [2] is “prevented the proteolytic cleavage between the amino acids 14 and 15”.

Regarding “Cys-Tyr-Tyr-Asp-Asp-Ser-Ser-Ser-Val-Leu-Cys-Lys-Lys-D-tyr-Arg-Ser”, the not cleaved in data set [3] is 94.7 percent remaining at 120 min.

For the molecule “CYFDDSSNVLCKKYRS (cysteine pairing not given here)”, in data set [4], the cleaved bond result was “Y14-R15, major, 10 minutes” and the fragment found result is recorded as “VI (GPR-263) Cys-Tyr-Phe-Asp-Asp-Ser-Ser-Asn-Val-Leu-Cys, 10 minutes; also recorded: VIII (GPR-262) Cys-Tyr-Phe-Asp-Asp-Ser-Ser-Asn-Val-Leu-Cys-Lys, 10 minutes; also recorded: IX (GPR-261) Cys-Tyr-Phe-Asp-Asp-Ser-Ser-Asn-Val-Leu-Cys-Lys-Lys, 10 minutes”.

As for “Y Y F S S S F V L C K R y* R S [478 | 68]”, in the data set “FIGURE 31 (2/2)”, the “% Remaining at 60 and 120 minutes | 60” value turned out to be 87.7%; the “% Remaining at 60 and 120 minutes | 120” value is listed as 78.9%.

`CC(C)C[C@@H]1NC(=O)[C@H](C(C)C)NC(=O)[C@H](CC(N)=O)NC(=O)[C@H](CO)NC(=O)[C@H](CO)NC(=O)[C@H](CC(=O)O)NC(=O)[C@H](CC(=O)O)NC(=O)[C@H](Cc2ccccc2)NC(=O)[C@H](Cc2ccc(O)cc2)NC(=O)[C@@H](N)CSSC[C@@H](C(=O)N[C@@H](CCCCN)C(=O)N[C@@H](CCCCN)C(=O)N[C@H](Cc2ccc(O)cc2)C(=O)N[C@@H](CCCNC(=N)N)C(=O)N[C@@H](CO)C(=O)O)NC1=O` [GPR-294, Cys-Tyr-Phe-Asp-Asp-Ser-Ser-Asn-Val-Leu-Cys-Lys-Lys-D-tyr-Arg-Ser] (H-CYFDDSSNVLCKK[dY]RS-OH; disulfide 1-11): in data set [5] (by either route of administration (i.v., s.c.)), the “plasma half-life compared with THR-123” value is listed as “much longer plasma half-life than the non-stabilized THR-123”. Besides, the bioavailability in data set [5] (in vivo, s.c. versus i.v., FIG. 13, read-out: bioavailable by sub-cutaneous administration) amounted to 100%. Moreover, the share remaining at 1 h in the data set “Ex-vivo plasma stability” (fresh plasma 37° C., 1 μM, 60 min, read-out: Percent remaining 60 min) was 72.6%. The amount remaining at 2 h in the data set “Ex-vivo plasma stability” (fresh plasma 37° C., 1 μM, 120 min, read-out: Percent remaining 120 min) was 67.9%. For the same molecule, in the data set “Ex-vivo plasma stability” (versus THR-123, rat plasma (FIGS. 3 and 4)), the “stability toward plasma proteolytic cleavage” value is given as “enhanced”.

(Values after US20160137714A1 (Thrasos Innovation, Inc., priority 2014, published 2016).)
